Measurements: US11597933B2, “Combination therapy of lymphoma” (The Trustees of Columbia University in the City of New York, priority 2017, dated 2023)
Like-named read-outs stand apart in the source and are kept apart here.

Columns and labels:
PF-382 = test: Cell viability assay, PF-382; type: cell-based
From the text: (§1) OCI-LY1, SU-DHL-2, SU-DHL-6, Pfeiffer, Farage, Toledo, Riva, HBL-1, Jeko-1, Z-138, H9, and HH were obtained from ATCC. OCI-LY7, OCI-LY10, SU-DHL-10 and OCI-LY3 were obtained from DSMZ. PF382, and P12 were a gift from the laboratory of Adolfo Fernando. TLOM-1 and MT-1 were obtained from Kyoto University; and MT-2 was obtained from Memorial Sloan Kettering Cancer Center. All cell lines were authenticated and screened for mycoplasma using the ATCC/Promega STR Authentication Testing Kit and Lonza MycoAlert.
(§2) Synergy was assessed by excess over bliss (EOB). […] Criteria for analyzing interactions between biologically active agents. Advances in cancer research 1981; 35:269-335.
(§3) To understand the effects of EZH2 inhibition and HDAC inhibition in cell lines with or without EZH2 dysfunction and HAT mutations, a panel of 21 lymphoma cell lines were exposed to GSK126, an EZH2 inhibitor, and romidepsin, a pan-HDAC inhibitor, as single agents. Both B-cell and TCL were selected in order to establish a range of drug sensitivity and mutational status. EZH2 status and HAT mutational status were confirmed.

SU-DHL-10 = test: Cell viability assay, SU-DHL-10; type: cell-based
From the text: as §1, §2, §3

Toledo = test: Cell viability assay, Toledo; type: cell-based
From the text: as §1, §2, §3

Pfeiffer = test: Cell viability assay, Pfeiffer; type: cell-based; conditions: for IC50: Pfeiffer
From the text: as §1, §2, §3

SU-DHL-6 = test: Cell viability assay, SU-DHL-6; type: cell-based
From the text: as §1, §2, §3

Farage = test: Cell viability assay, Farage; type: cell-based
From the text: as §1, §2, §3

HBL-1 = test: Cell viability assay, HBL-1; type: cell-based
From the text: as §1, §2, §3

HH = test: Cell viability assay, HH; type: cell-based
From the text: as §1, §2, §3

TLOM-1 = test: Cell viability assay, TLOM-1; type: cell-based
From the text: as §1, §2, §3

OCI-LY7 = test: Cell viability assay, OCI-LY7; type: cell-based
From the text: as §1, §2, §3

RbAp 46/48 (RBBP4) = test: Acetyl-lysine immunoprecipitation and mass spectrometry; type: cell-based; conditions: SU-DHL-10 cells, acetyl-lysine antibody IP, compared to control, FDR<1.0%
Description: Immunoprecipitation was performed using Thermo Scientific™ Pierce™ MS-Compatible Magnetic IP Kit (#84840). Protein was incubated with EZH2 or acetylated-lysine antibody. Antibody bound proteins were eluted and run into SDS PAGE. The excised gel lane pieces were reduced, alkylated, and digested in Trypsin Gold (Promega) digestion buffer (Thermo Fischer Scientific). Condensed evaporated water was collected by brief centrifugation using microcentrifuge (Eppendorf). The gel pieces and digestion reaction were mixed with 2.5% Trifluoretic Acids (TFA, Thermo Fischer Scientific). Peptides were extracted with 70% acetonitrile (ACN/5% TFA mixture) (Thermo Fischer Scientific). The extracts were pooled and dried to completion in SpeedVac.
The concentrated peptide mix was reconstituted in a solution of 2% ACN, 2% formic acid (FA) for MS analysis. Peptides were eluted from the column using a Dionex Ultimate 3000 Nano LC system. Using Thermo Fusion Tribrid mass spectrometer (Thermo Scientific), eluted peptides were electro sprayed. Mass spectrometer-scanning functions and HPLC gradients were controlled by the Xcalibur data system (Thermo Fischer).
Tandem mass spectra from raw files were searched against uniprot_human_170129.fasta data base using the Proteome Discoverer 2.1 (Thermo Fischer). The […] protein database was downloaded as FASTA-formatted sequences from Uniprot protein database (January 2017). […]

SU-DHL-2 = test: Cell viability assay, SU-DHL-2; type: cell-based
From the text: as §1, §2, §3

Jeko-1 = test: Cell viability assay, Jeko-1; type: cell-based
From the text: as §1, §2, §3

OCI-LY3 = test: Cell viability assay, OCI-LY3; type: cell-based
From the text: as §1, §2, §3

[1] = Pharmacokinetic analysis of serum and tumor samples; conditions: single exposure to GSK126 and romidepsin, over 24 hours
Description: (§4) F. Serum romidepsin pharmacokinetic parameters after single injection of GSK and romidepsin over 24 hours.

OCI-LY1 = test: Cell viability assay, OCI-LY1; type: cell-based
From the text: as §1, §2, §3

OCI-LY10 = test: Cell viability assay, OCI-LY10; type: cell-based
From the text: as §1, §2, §3

Riva = test: Cell viability assay, Riva; type: cell-based
From the text: as §1, §2, §3

P12 = test: Cell viability assay, P12; type: cell-based
From the text: as §1, §2, §3

Z-138 = test: Cell viability assay, Z-138; type: cell-based
From the text: as §1, §2, §3

H9 = test: Cell viability assay, H9; type: cell-based
From the text: as §1, §2, §3

MT-2 = test: Cell viability assay, MT-2; type: cell-based
From the text: as §1, §2, §3

MT-1 = test: Cell viability assay, MT-1; type: cell-based
From the text: as §1, §2, §3

in vivo = conditions: mouse, serum, ip
Description: as §4

[2] = system: R/R DLBCL or follicular lymphoma (FL); conditions: 800 mg BID, cited from earlier work
[3] = mouse, in vivo
Description: as §4

HEK 293T cells = test: H3K27 acetylation and methylation in HEK 293T cells; type: cell-based; conditions: single agent exposure in HEK 293T cells
[4] = Homo sapiens, 72 h, read-out: IC50 Romidespin
[5] = 72 h, read-out: IC50 Romidespin
[6] = GC-DLBCL, EZH2 Wildtype, 144 hours, read-out: IC50 GSK126

C/C=C1\NC(=O)[C@H]2CSSCC/C=C/[C@H](CC(=O)N[C@H](C(C)C)C(=O)N2)OC(=O)[C@H](C(C)C)NC1=O [romidepsin]
IC50 (PF-382; Homo sapiens, PF-382, 72 h, read-out: IC50 Romidespin): 3.5 nM
IC50 (SU-DHL-10; Homo sapiens, SU-DHL10, 72 h, read-out: IC50 Romidespin, SU-DHL-10, GC-DLBCL, EP300 mis mut/CREBBP trunc mut, 72-hour exposure): 2.59 nM
IC50 (SU-DHL-10; read-out: IC50 Romidespin, SU-DHL-10, GC-DLBCL, EP300 mis mut/CREBBP trunc mut, 72-hour exposure): 2.1 nM
IC50 (Toledo; [4]): 1 nM
IC50 (Pfeiffer; [4]): 6 nM
IC50 (SU-DHL-6; Homo sapiens, SU-DHL-6, 72 h, read-out: IC50 Romidespin): 2 nM
IC50 (Farage; [5]): 1.7 nM
IC50 (HBL-1; HBL1, 72 h, read-out: IC50 Romidespin): 1 nM
IC50 (HH; [4]): 1.1 nM
IC50 (TLOM-1; [5]): 4.3 nM
IC50 (OCI-LY7; Homo sapiens, OCI-Ly7, 72 h, read-out: IC50 Romidespin): 1.5 nM
increase of RbAp 46/48 (RBBP4) estimated by spectral counts (RbAp 46/48 (RBBP4)): 2 fold
IC50 (SU-DHL-2; Homo sapiens, SU-DHL-2, 72 h, read-out: IC50 Romidespin): 1.3 nM
IC50 (Jeko-1; Homo sapiens, JeKo-1, 72 h, read-out: IC50 Romidespin): 1.1 nM
IC50 (OCI-LY3; Homo sapiens, OCI-Ly3, 72 h, read-out: IC50 Romidespin): 1.7 nM
intratumor concentration [1]: below the level of detection
IC50 (OCI-LY1; Homo sapiens, OCI-Ly1, 72 h, read-out: IC50 Romidespin): 2.5 nM
IC50 (OCI-LY10; Homo sapiens, OCI-Ly10, 72 h, read-out: IC50 Romidespin): 1 nM
IC50 (Riva; [5]): 1.5 nM
IC50 (P12; P12, 72 h, read-out: IC50 Romidespin): 4.3 nM
IC50 (Z-138; Homo sapiens, Z-138, 72 h, read-out: IC50 Romidespin): 1.1 nM
IC50 (H9; Homo sapiens, H9, 72 h, read-out: IC50 Romidespin): 1.3 nM
IC50 (MT-2; Homo sapiens, MT2, 72 h, read-out: IC50 Romidespin): 2.7 nM
IC50 (MT-1; [5]): 2.8 nM
Cmax (in vivo): 25.1 ng/mL

CCN(c1cc(C#CCN2CCOCC2)cc(C(=O)NCc2c(C)cc(C)[nH]c2=O)c1C)[C@H]1CC[C@H](N(C)CCOC)CC1 [EPZ011989]
sensitivity, cell viability curve (Pfeiffer; Pfeiffer (GC-DLBCL), single agent): potent sensitivity

CCN(c1cc(-c2ccc(CN3CCOCC3)cc2)cc(C(=O)NCc2c(C)cc(C)[nH]c2=O)c1C)C1CCOCC1 [tazemetostat]
tolerability ([2]; preliminary results): well tolerated
treatment related emergent adverse events: anemia [2]: 10%
treatment related emergent adverse events: nausea [2]: 14%
treatment related emergent adverse events: thrombocytopenia [2]: 13%

CC[C@H](C)n1cc(C)c2c(C(=O)NCc3c(C)cc(C)[nH]c3=O)cc(-c3ccc(N4CCNCC4)nc3)cc21 [GSK126]
IC50 (PF-382; PF-382, T-ALL, EZH2 Wildtype, 144 hours, read-out: IC50 GSK126): 5600 nM
IC50 (SU-DHL-10; SU-DHL-10, GC-DLBCL, EZH2 Y641F, Y646S, 144 hours, read-out: IC50 GSK126): 700 nM
IC50 (Toledo; [6]): 6000 nM
Cmax [3]: 3.15 µM
serum AUC0-last [3]: 2828.57 ng·h/mL
Cmax ([3]; ip): 1657.5 ± 413.6 ng/mL
IC50 (Pfeiffer; GC-DLBCL, EZH2 A677G, 144 hours, read-out: IC50 GSK126): 100 nM
IC50 (SU-DHL-6; SU-DHL-6, GC-DLBCL, EZH2 Y602N, Y646N, 144 hours, read-out: IC50 GSK126): 3100 nM
IC50 (Farage; [6]): 10000 nM
IC50 (HBL-1; HBL-1, ABC-DLBCL, EZH2 Wildtype, 144 hours, read-out: IC50 GSK126): 4200 nM
IC50 (HH; CTCL, EZH2 Wildtype, 144 hours, read-out: IC50 GSK126): 4400 nM
IC50 (TLOM-1; TLOM-1, ATLL, EZH2 Overexpression, 144 hours, read-out: IC50 GSK126): 1500 nM
IC50 (OCI-LY7; OCI-LY7, GC-DLBCL, EZH2 Wildtype, 144 hours, read-out: IC50 GSK126): 4300 nM
IC50 (SU-DHL-2; SU-DHL-2, ABC-DLBCL, EZH2 Wildtype, 144 hours, read-out: IC50 GSK126): 4400 nM
IC50 (Jeko-1; Jeko-1, Mantle Cell, EZH2 Overexpression, 144 hours, read-out: IC50 GSK126): 10000 nM
status of acetylation or methylation of H3K27 (HEK 293T cells): did not significantly change
IC50 (OCI-LY3; OCI-LY3, ABC-DLBCL, EZH2 Wildtype, 144 hours, read-out: IC50 GSK126): 7200 nM
IC50 (OCI-LY1; OCI-LY1, GC-DLBCL, EZH2 Y602N, Y646N, 144 hours, read-out: IC50 GSK126): 3700 nM
IC50 (OCI-LY10; OCI-LY10, ABC-DLBCL, EZH2 Wildtype, 144 hours, read-out: IC50 GSK126): 6400 nM
IC50 (Riva; Riva, ABC-DLBCL, EZH2 Wildtype, 144 hours, read-out: IC50 GSK126): 7500 nM
IC50 (P12; P12, T-ALL, EZH2 Wildtype, 144 hours, read-out: IC50 GSK126): 6000 nM
IC50 (Z-138; Z-138, Mantle Cell, EZH2 Overexpression, 144 hours, read-out: IC50 GSK126): 7100 nM
IC50 (H9; H9, CTCL, EZH2 Wildtype, 144 hours, read-out: IC50 GSK126): 6100 nM
IC50 (MT-2; MT-2, ATLL, EZH2 Overexpression, 144 hours, read-out: IC50 GSK126): 9000 nM
IC50 (MT-1; MT-1, ATLL, EZH2 Overexpression, 144 hours, read-out: IC50 GSK126): 4400 nM
